Test results: PubChem BioAssay (NCI)
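These data come from cells grown in 96-well plates and exposed to compound for 48 hours at five concentrations. GI50 is the concentration that inhibits growth by half. Definition used: TGI = concentration required for complete inhibition of growth.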

Tests used:
Assay in all cases: NCI anticancer screen, dose series, 48 h
786-0 renal = test system: 786-0 renal
A549 NSCLC = test system: A549 NSCLC
EKVX NSCLC = test system: EKVX NSCLC
MALME-3M melanoma = test system: MALME-3M melanoma
OVCAR-5 ovarian = test system: OVCAR-5 ovarian
OVCAR-8 ovarian = test system: OVCAR-8 ovarian
SK-MEL-5 melanoma = test system: SK-MEL-5 melanoma
SR leukemia = test system: SR leukemia
HCT-15 colon = test system: HCT-15 colon
CAKI-1 renal = test system: CAKI-1 renal

SMILES | TGI (786-0 renal) [µM] | TGI (A549 NSCLC) [µM] | TGI (EKVX NSCLC) [µM] | TGI (MALME-3M melanoma) [µM] | TGI (OVCAR-5 ovarian) [µM] | TGI (OVCAR-8 ovarian) [µM] | TGI (SK-MEL-5 melanoma) [µM] | TGI (SR leukemia) [µM] | TGI (HCT-15 colon) [µM] | GI50 (786-0 renal) [µM] | GI50 (A549 NSCLC) [µM] | GI50 (EKVX NSCLC) [µM] | GI50 (HCT-15 colon) [µM] | GI50 (OVCAR-5 ovarian) [µM] | GI50 (OVCAR-8 ovarian) [µM] | GI50 (SK-MEL-5 melanoma) [µM] | GI50 (SR leukemia) [µM] | GI50 (CAKI-1 renal) [µM] | TGI (CAKI-1 renal) [µM] | GI50 (MALME-3M melanoma) [µM]
O=C(Cc1ccccc1)Nn1c(-c2ccccc2)nc2ccccc2c1=O | > 100 | > 100 | > 100 | > 100 | > 100 | > 100 | > 100 | > 100 |  |  |  |  |  |  |  |  |  |  |  | 
COc1ccc(C2SCC(=O)N2NC(=O)c2ccc(NC(C)=O)cc2)cc1 (stereo not drawn) | > 100 | > 100 | > 100 |  | > 100 | > 100 | > 100 |  | > 100 |  |  |  |  |  |  |  |  |  |  | 
Cc1cc(C)c(Cn2cnc3c(Cl)ncnc32)c(C)c1CCl | > 100 | > 100 | > 100 |  | > 100 | > 100 | > 100 | 47.4 | 18.8 | > 100 | 37.7 | > 100 | 0.343 | > 100 | > 100 | > 100 | 12.7 |  |  | 
O=Cc1ccc(-c2ccc(-c3nc4ccccc4o3)cc2)o1 | 92.8 | > 100 | > 100 | 65 | 95.2 | > 100 | 62 |  | 53.4 | 24.4 | 58.9 | 38.7 | 19.7 | 29 | 33.3 | 22 |  | 22.6 | 65.9 | 24.6
Cc1cn2c(/C=N/N=C(N)N)c(-c3cccs3)nc2s1 | 6.06 | 31.1 | 21.1 |  | 7.37 | 36 | 2.19 | 3.99 | 18.4 | 2.42 | 10.6 | 8.8 | 4.3 | 2.37 | 13.2 | 0.376 | 2 | 13.7 | 27.5 | 
O=S1Nc2c(Cl)cc(Cl)c3c(Cl)cc(Cl)c(c23)N1 | 41.9 | > 100 | > 100 | > 100 | > 100 | > 100 | > 100 |  | > 100 |  |  |  |  |  |  |  |  |  | 95.2 | 
SCCSCCCSCCS | > 100 | > 100 | > 100 |  | > 100 | > 100 | > 100 | 32.7 | > 100 |  |  |  |  |  |  |  |  |  |  | 
COc1nc(N)nc2c1ncn2C1OC(CO)C(O)C1O (stereo not drawn) | > 5000 | > 5000 | > 5000 | > 5000 | > 5000 | > 5000 | > 5000 |  | > 5000 | > 5000 | 701 | > 5000 | > 5000 | > 5000 | > 5000 | 164 |  | 3120 | > 5000 | 1150
COc1cc(CNc2ccccc2C(=O)N2CCN(C(=O)c3cc(-c4cc(OC)c(OC)c(OC)c4)n4nc(-c5ccccc5)cc4n3)CC2)cc(OC)c1OC | > 100 | > 100 | > 100 |  | > 100 | > 100 | 3.91 | > 100 | > 100 | 4.49 | 3.55 | 4.96 | 4.25 | 10.9 | 4.35 | 1.58 | 0.581 | 1.39 | > 100 | 
CNC(=O)Cc1nc(-c2cccc(NS(=O)(=O)c3c(F)cccc3F)c2F)c(-c2ccnc(Nc3ccccc3)n2)s1 | > 50 | > 50 | > 50 |  | > 50 | > 50 | > 19.8 | > 50 | > 50 | 10.1 | 8.53 | 22.4 | 7.37 | 2.85 | 7.32 | 0.0866 | 8.07 | 0.385 | > 50 | 
COC(=O)C1[C@H](c2cc(OC)c(OC)c(OC)c2)OC(=O)C1(C(=O)OC)C(=O)c1ccc2c(c1)OCO2 (stereo partly drawn) | > 100 | > 100 | > 100 | > 100 | > 100 | > 100 | > 100 |  | > 100 |  |  |  |  |  |  |  |  |  | > 100 | 
CC(C)(C)C(=O)OCC1CCC(n2cnc3c(=O)[nH]c(N)nc32)O1 (stereo not drawn) | > 100 | > 100 | > 100 | > 100 | > 100 | > 100 | > 100 |  | > 100 |  |  |  |  |  |  |  |  |  | > 100 | 
N#C/C(=C1\SC(N=Nc2ccccc2)C(=O)N1c1ccccc1)c1nc2ccccc2[nH]1 (stereo not drawn) | > 100 | > 100 | > 100 | > 100 | > 100 | > 100 | > 100 |  | > 100 |  |  |  |  |  |  |  |  |  | > 100 | 
Nc1ccn(C2OC(COC(=O)C34CC5CC(CC(C5)C3)C4)C(O)C2O)c(=O)n1 (stereo not drawn) | > 100 | > 100 | > 100 | > 100 | > 100 | > 100 | > 100 |  | > 100 |  |  |  |  |  |  |  |  |  | > 100 | 
CC(=O)On1c(-c2ccccc2-c2nc3ccccc3n2OC(C)=O)nc2ccccc21 | > 100 | > 100 |  | > 100 | > 100 | > 100 | 13.7 | > 100 | > 100 |  |  |  |  |  |  |  |  |  | > 100 | 
CC(=O)[CH-]C(=O)c1ccccc1.CC(=O)[CH-]C(=O)c1ccccc1.CCOCC[O-].CCOCC[O-].[Ti+4] | 74.2 | 90.5 | 96.4 | 43.7 | 60.7 | 41.7 | 53.3 |  | 91.9 | 21.2 | 28.7 | 38.4 | 28.3 | 26.8 | 19.6 | 22.5 |  | 19.2 | 57.8 | 16.9
CCc1cccc(CC)c1NC(=O)C1=C(C)NC(C)=C(C(=O)Nc2c(CC)cccc2CC)C1c1ccc([N+](=O)[O-])cc1 | 29.2 | > 100 | 78.3 | 46.8 | > 100 | 64.3 | 33 |  |  |  |  |  |  |  |  |  |  |  | > 100 | 
CN(C)C=C1C(Cl)=C(C=O)CC(C=O)=C1Cl | 24.5 | > 100 | 54.3 | 24.4 | 30 | 12.6 | 23.5 |  | 11.9 |  |  |  |  |  |  |  |  |  | 31.2 | 
